In patent US7449478B2, “Indole compounds” (National Health Research Institutes, priority 2003, dated 2008):

Tested on: PPAR
Experiment: PPAR agonist activity / binding to PPAR, tetraethylthiuram disulfide alone or combined
Conditions: tetraethylthiuram disulfide alone

- PPAR agonist activity: poor PPAR agonist
Structure (SMILES): CCN(CC)C(=S)SSC(=S)N(CC)CC [tetraethylthiuram disulfide]
